# Results from PubChem BioAssay (NCI).
# “And” between values parts separate entries of the source, which are not always exact repeats. Identical values can stand only once.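 Compound exposure: 48 hours, 5 concentrations, 96-well plates. GI50 = concentration required for 50% inhibition of growth. TGI denotes the concentration required for complete inhibition of growth.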
# Experiments:
# Test in all cases: growth of human tumour cells (NCI), 48 h
# [1] = tested on: 786-0 renal
# [2] = tested on: A498 renal
# [3] = tested on: A549 NSCLC
# [4] = tested on: ACHN renal
# [5] = tested on: BT-549 breast
# [6] = tested on: CAKI-1 renal
# [7] = tested on: CCRF-CEM leukemia
# [8] = tested on: COLO 205 colon
# [9] = tested on: DU-145 prostate
# [10] = tested on: EKVX NSCLC
# [11] = tested on: HCC-2998 colon
# [12] = tested on: HCT-116 colon
# [13] = tested on: HCT-15 colon
# [14] = tested on: HL-60(TB) leukemia
# [15] = tested on: HOP-62 NSCLC
# [16] = tested on: HOP-92 NSCLC
# [17] = tested on: HS 578T breast
# [18] = tested on: HT29 colon
# [19] = tested on: IGROV1 ovarian
# [20] = tested on: K-562 leukemia
# [21] = tested on: KM12 colon
# [22] = tested on: LOX IMVI melanoma
# [23] = tested on: M14 melanoma
# [24] = tested on: MALME-3M melanoma
# [25] = tested on: MCF7 breast
# [26] = tested on: MDA-MB-231 breast
# [27] = tested on: MDA-MB-435
# [28] = tested on: MDA-MB-468 breast
# [29] = tested on: MOLT-4 leukemia
# [30] = tested on: NCI-H226 lung
# [31] = tested on: NCI-H23 lung
# [32] = tested on: NCI-H460 lung
# [33] = tested on: NCI-H522 lung
# [34] = tested on: NCI/ADR-RES ovarian
# [35] = tested on: OVCAR-3 ovarian
# [36] = tested on: OVCAR-4 ovarian
# [37] = tested on: OVCAR-5 ovarian
# [38] = tested on: OVCAR-8 ovarian
# [39] = tested on: PC-3 prostate
# [40] = tested on: RPMI-8226 leukemia
# [41] = tested on: SF-268 CNS
# [42] = tested on: SF-295 CNS
# [43] = tested on: SF-539 CNS
# [44] = tested on: SK-MEL-2 melanoma
# [45] = tested on: SK-MEL-28 melanoma
# [46] = tested on: SK-MEL-5 melanoma
# [47] = tested on: SK-OV-3 ovarian
# [48] = tested on: SN12C renal
# [49] = tested on: SNB-19 CNS
# [50] = tested on: SNB-75 CNS
# [51] = tested on: SR leukemia
# [52] = tested on: SW-620 colon
# [53] = tested on: T-47D breast
# [54] = tested on: TK-10 renal
# [55] = tested on: U251 CNS
# [56] = tested on: UACC-257 melanoma
# [57] = tested on: UACC-62 melanoma
# [58] = tested on: UO-31 renal
smiles,measurement,setting,value
COc1ccc(C(=O)/C=C/c2ccc(OCc3ccccc3)c(OC)c2)cc1OC,GI50,[1],25.4 µM
same,TGI,[1],> 100 µM
same,GI50,[2],20.3 µM
same,TGI,[2],94.2 µM
same,GI50,[3],10.4 µM
same,TGI,[3],> 100 µM
same,GI50,[4],15.3 µM
same,TGI,[4],> 100 µM
same,GI50,[5],5.08 µM
same,TGI,[5],55.7 µM
same,GI50,[6],16.7 µM
same,TGI,[6],> 100 µM
same,GI50,[7],4.01 µM
same,TGI,[7],> 100 µM
same,GI50,[8],15.7 µM
same,TGI,[8],> 100 µM
same,GI50,[9],5.78 µM
same,TGI,[9],> 100 µM
same,GI50,[10],11.4 µM
same,TGI,[10],> 100 µM
same,GI50,[11],7.06 µM
same,TGI,[11],30 µM
same,GI50,[12],3.56 µM
same,TGI,[12],> 100 µM
same,GI50,[13],3.45 µM
same,TGI,[13],47.6 µM
same,GI50,[14],13.4 µM
same,TGI,[14],61.2 µM
same,GI50,[15],4.95 µM
same,TGI,[15],> 100 µM
same,GI50,[16],6.03 µM
same,TGI,[16],> 100 µM
same,GI50,[17],18.4 µM
same,TGI,[17],> 100 µM
same,GI50,[18],3.52 µM
same,TGI,[18],> 100 µM
same,GI50,[19],6.33 µM
same,TGI,[19],> 100 µM
same,GI50,[20],3.06 µM
same,TGI,[20],> 100 µM
same,GI50,[21],5.19 µM
same,TGI,[21],> 100 µM
same,GI50,[22],4.11 µM
same,TGI,[22],37.1 µM
same,GI50,[23],27.4 µM
same,TGI,[23],> 100 µM
same,GI50,[24],41.1 µM
same,TGI,[24],> 100 µM
same,GI50,[25],3.44 µM
same,TGI,[25],> 100 µM
same,GI50,[26],8.48 µM
same,TGI,[26],78.9 µM
same,GI50,[27],12 µM
same,TGI,[27],59.6 µM
same,GI50,[28],2.15 µM and 3.99 µM
same,TGI,[28],7.35 µM and 32.2 µM
same,GI50,[29],4.47 µM
same,TGI,[29],> 100 µM
same,GI50,[30],5.34 µM
same,TGI,[30],87.3 µM
same,GI50,[31],6.95 µM
same,TGI,[31],43 µM
same,GI50,[32],4.6 µM
same,TGI,[32],38.3 µM
same,GI50,[33],4.86 µM
same,TGI,[33],36.3 µM
same,GI50,[34],5.08 µM
same,TGI,[34],39.3 µM
same,GI50,[35],4.48 µM
same,TGI,[35],> 100 µM
same,GI50,[36],4.28 µM
same,TGI,[36],> 100 µM
same,GI50,[37],12.5 µM
same,TGI,[37],92.2 µM
same,GI50,[38],3.6 µM
same,TGI,[38],> 100 µM
same,GI50,[39],7.05 µM
same,TGI,[39],> 100 µM
same,GI50,[40],3.02 µM
same,TGI,[40],> 100 µM
same,GI50,[41],10.8 µM
same,TGI,[41],> 100 µM
same,GI50,[42],9.59 µM
same,TGI,[42],> 100 µM
same,GI50,[43],3.38 µM
same,TGI,[43],13.1 µM
same,GI50,[44],17.4 µM
same,TGI,[44],60.5 µM
same,GI50,[45],34 µM
same,TGI,[45],> 100 µM
same,GI50,[46],17.4 µM
same,TGI,[46],43.1 µM
same,GI50,[47],40.5 µM
same,TGI,[47],> 100 µM
same,GI50,[48],4.48 µM
same,TGI,[48],45.7 µM
same,GI50,[49],8.3 µM
same,TGI,[49],> 100 µM
same,GI50,[50],18.7 µM
same,TGI,[50],77.2 µM
same,GI50,[51],2.8 µM
same,TGI,[51],> 100 µM
same,GI50,[52],3.64 µM
same,TGI,[52],> 100 µM
same,GI50,[53],5.46 µM
same,TGI,[53],> 100 µM
same,GI50,[54],21.4 µM
same,TGI,[54],> 100 µM
same,GI50,[55],3.16 µM
same,TGI,[55],> 100 µM
same,GI50,[56],29.3 µM
same,TGI,[56],> 100 µM
same,GI50,[57],6.42 µM
same,TGI,[57],> 100 µM
same,GI50,[58],5.38 µM
same,TGI,[58],> 100 µM
